Experiments:
ADRA2C = target: T1, ADRA2C (Homo sapiens, UniProt P18825); experiment: NanoBRET screen HiBiT-ADRA2C in HEK293; assay type: binding
T1 construct: purchased Promega (in-house HiBiT-GPCR construct library, NanoBRET)
T1 sequence (P18825 1-462): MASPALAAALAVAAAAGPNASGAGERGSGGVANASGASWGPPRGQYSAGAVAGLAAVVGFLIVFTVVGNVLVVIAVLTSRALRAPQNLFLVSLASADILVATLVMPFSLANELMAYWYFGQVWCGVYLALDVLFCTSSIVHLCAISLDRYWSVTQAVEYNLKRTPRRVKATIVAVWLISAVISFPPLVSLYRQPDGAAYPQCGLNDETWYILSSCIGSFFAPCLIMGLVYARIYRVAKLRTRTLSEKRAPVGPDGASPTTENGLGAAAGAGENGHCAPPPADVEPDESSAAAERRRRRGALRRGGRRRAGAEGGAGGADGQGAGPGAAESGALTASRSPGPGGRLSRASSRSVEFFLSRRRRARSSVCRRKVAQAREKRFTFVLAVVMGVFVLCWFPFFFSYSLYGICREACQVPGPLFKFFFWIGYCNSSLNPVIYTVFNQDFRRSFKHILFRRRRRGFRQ
Description: (§1) Each tracer candidate was screened across the entire library of HiBiT-GPCR constructs using NanoBRET as the detection modality. As depicted in Figure 4A, the specificity of interactions was evaluated through decrease in BRET due to competitive displacement of a bound tracer by excess parental compound. Each tracer was analyzed for binding to each HiBiT-GPCR fusion in the absence and in the presence of competing parental compound. Briefly, HEK293 cells were transfected with HiBiT-GPCR constructs diluted into promoterless DNA to reduce expression and maximize translocation to the cell surface. Each tracer candidate was then screened at concentrations of 1 μM and 0.1 μM across cells expressing these fusions. Cells were treated for 1.5 h with tracer either alone or in the presence of 20 μM competing parental compound (i.e., control). BRET was measured upon addition of purified LgBiT and subsequent complementation with HiBiT genetically fused to a GPCR. The specificity of interactions was assessed through a decrease in BRET signal due to competitive displacement of the bound tracer. To further gauge the robustness of these interactions, the fold response over the control (i.e., BRETtracer/BRETcontrol) was calculated. We chose a 1.5-fold response, which translates to ≥7-fold signal over noise as the minimal threshold required to score an interaction as positive. […]. Below we highlight the screening results obtained for our exemplary fluorescent tracers based on Clozapine, Amitriptyline and AZD1283.
(§2) HiBiT-GPCR DNA constructs were diluted in 10 mM Tris pH 8 to a final concentration of 0.01 μg/μL, arrayed in 96-well plates and stored at −20 °C. For transfection, HEK293 cells were suspended in Opti-MEM (without phenol red) supplemented with 2% fetal bovine serum (Seradigm) and 100 units/mL penicillin–streptomycin (Gibco) at a final concentration of 220,000 cells/mL and dispensed into white 96-well plates at 90 μL/well. Subsequent transfections and screens were carried using an Agilent Bravo Automated Liquid Handling Platform. First, the 96-well HiBiT DNA arrays were diluted 25-fold in Opti-MEM (without serum or phenol red) to a final concentration of 0.0004 μg/μL and 20 μL of the diluted DNAs were transferred into new 96-well plates. Next, promoterless carrier DNA (1 μg/μL) was diluted 25-fold (0.04 μg/μL) and then dispensed into the diluted arrays at 20 μL/well. Following brief mixing, Viafect transfection reagent (Promega) diluted 16-fold into Opti-MEM was dispensed into the plates at 40 μL/well. After mixing by pipetting, plates were incubated for 10 min on the pipetting station deck. The DNA-transfection reagent complexes were then added to plates containing cells. To facilitate the screen, 10 μL of DNA-transfection reagent complexes were added in duplicates to the top 4 and bottom 4 rows, resulting in two identical 48-well arrays per plate. Plates with transfected cells were incubated for 18–20 h at 37 °C/5% CO2. A screen of each tracer across the entire library using two different concentrations requires duplicate plates of transfected cells. Depending on the number of tracers being screened, transfections can be scaled up using the same ratios. The next day, for each tracer, four 20× screening solutions in tracer dilution buffer (Promega) were prepared: two duplicates at final concentration of 20 μM and two duplicates at a final concentration of 2 μM. A competing unmodified compound was added to one of each duplicate at a final concentration of 400 μM. The four resulting solutions were diluted 4-fold in Opti-MEM without serum or phenol red to generate 5× solutions (5 µM and 0.5 µM tracer +/− 100 μM competing compound). To screen the library, a BioTek MultiFlo FX liquid dispenser was used to dispense 22.5 µL of tracer solution to the top 4 rows and 22.5 µL tracer + competing compound solution to the 4 bottom rows. Plates were briefly mixed on an orbital shaker and incubated for 1.5 h at room temperature. […]

C3AR1 = target: T2, C3AR1 (Homo sapiens, UniProt Q16581); experiment: NanoBRET screen HiBiT-C3AR1 in HEK293; assay type: binding
T2 construct: purchased Promega (in-house HiBiT-GPCR construct library, NanoBRET)
T2 sequence (Q16581 1-482): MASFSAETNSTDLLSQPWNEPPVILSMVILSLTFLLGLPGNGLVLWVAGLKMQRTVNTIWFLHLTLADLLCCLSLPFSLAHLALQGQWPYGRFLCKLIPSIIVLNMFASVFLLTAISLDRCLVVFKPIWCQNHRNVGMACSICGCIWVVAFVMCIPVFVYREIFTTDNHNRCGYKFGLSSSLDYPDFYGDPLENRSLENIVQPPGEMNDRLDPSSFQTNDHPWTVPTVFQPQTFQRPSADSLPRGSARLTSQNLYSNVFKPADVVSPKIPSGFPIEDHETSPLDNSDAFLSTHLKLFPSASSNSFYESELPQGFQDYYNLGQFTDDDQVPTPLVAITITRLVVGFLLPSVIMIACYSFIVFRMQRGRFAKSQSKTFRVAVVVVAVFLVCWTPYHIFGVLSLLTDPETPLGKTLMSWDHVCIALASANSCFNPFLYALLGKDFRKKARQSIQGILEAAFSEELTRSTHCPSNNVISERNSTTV
Description: as §1, §2

[1] = tracer at 0.1μM, listed as amitriptyline-b-2-NB590

SMILES	NanoBRET Fold Response (ADRA2C; ADRA2C, tracer 0.1μM)	NanoBRET Fold Response (ADRA2C; ADRA2C, tracer 1μM)	NanoBRET Fold Response (C3AR1; C3AR1, tracer 0.1μM)	NanoBRET Fold Response (C3AR1; C3AR1, tracer 1μM)	further results
O=C(CCc1ccc2n1[B-](F)(F)[N+]1=C(c3ccc[nH]3)C=CC1=C2)NCc1ccc(C(=O)NCCOCCC(=O)N[C@@H]2CC[C@@]3(O)[C@H]4Cc5ccc(O)c6c5[C@@]3(CCN4CC3CC3)[C@H]2O6)cc1 [Naltrexone-3-NB590]	0.99	1.05	0.99	1.02	
CCCn1c(=O)c2[nH]c(-c3ccc(OCC(=O)NCCNC(=O)CCOCCNC(=O)c4ccc(CNC(=O)CCc5ccc6n5[B-](F)(F)[N+]5=C(c7ccc[nH]7)C=CC5=C6)cc4)cc3)nc2n(CCC)c1=O [XAC-3-NB590]	0.77	1.20	1.15	0.96	
CC(C)N(CC[C@H](c1ccccc1)c1cc(CCNC(=O)c2ccc(CNC(=O)CCc3ccc4n3[B-](F)(F)[N+]3=C(c5ccc[nH]5)C=CC3=C4)cc2)ccc1O)C(C)C [Tolterodine-BZ-NB590]	1.09	1.11	1.00	0.99	
N#CN/C(=N\CCNC(=O)c1ccc(N)cc1)NCCCOc1cccc(CN2CCCCC2)c1 [Aminopotentidine (unmodified)]					NanoBRET Fold Response (ADRA2C; ADRA2C, other tracers/Aminopotentidine (unmodified), 0.1μM): 1.06; NanoBRET Fold Response (ADRA2C; ADRA2C, other tracers/Aminopotentidine (unmodified), 1μM): 1.11
COc1ccc2[nH]c(-c3ccc(CNC(=O)CCOCCOCCOCCOCCNC(=O)CCc4ccc5n4[B-](F)(F)[N+]4=C(c6ccc[nH]6)C=CC4=C5)cc3)c(CCNC(C)=O)c2n1 [AzomelatoninICO9-2-NB590]					NanoBRET Fold Response (ADRA2C; 0.1μM tracer): 1.08; NanoBRET Fold Response (ADRA2C; 1μM tracer): 1.17; NanoBRET Fold Response (C3AR1; 0.1μM tracer): 0.78; NanoBRET Fold Response (C3AR1; 1μM tracer): 0.87
CN1CCN(C2=Nc3cc(Cl)ccc3N(CC(=O)NCCOCCOCCOCCOCCNC(=O)CCc3ccc4n3[B-](F)(F)[N+]3=C(c5ccc[nH]5)C=CC3=C4)c3ccccc32)CC1 [Clozapine-c-2-NB590]					NanoBRET Fold Response (ADRA2C; ADRA2C, 0.1μM tracer): 1.05; NanoBRET Fold Response (ADRA2C; ADRA2C, 1μM tracer): 1.49; NanoBRET Fold Response (C3AR1; C3AR1, 0.1μM tracer): 0.99; NanoBRET Fold Response (C3AR1; C3AR1, 1μM tracer): 1.00
COc1ccccc1N1CCN(CCCCN2C(=O)c3ccc(CNC(=O)CCOCCNC(=O)c4ccc(CNC(=O)CCc5ccc6n5[B-](F)(F)[N+]5=C(c7ccc[nH]7)C=CC5=C6)cc4)cc3C2=O)CC1 [NAN-190-3-NB590]	1.56	1.33	0.90	0.93	
Cc1nc2n(c(=O)c1CCN1CCC(c3noc4cc(F)ccc34)CC1)CCCC2OC(=O)NCCOCCOCCOCCOCCNC(=O)CCc1ccc2n1[B-](F)(F)[N+]1=C(c3ccc[nH]3)C=CC1=C2 (stereo not shown) [Risperidone-2-NB590]	1.59	1.37	0.93	0.98	
O=C(CCOCCOCCOCCOCCNC(=O)CCc1ccc2n1[B-](F)(F)[N+]1=C(c3ccc[nH]3)C=CC1=C2)NCCCN1CCN(C2=Nc3ccccc3Oc3ccc(Cl)cc32)CC1 [Loxapine-a-2-NB590]	1.13	1.54	0.97	1.08	
COc1ccccc1N1CCN(CCCCN2C(=O)c3ccc(CNC(=O)CCOCCOCCOCCOCCNC(=O)CCc4ccc5n4[B-](F)(F)[N+]4=C(c6ccc[nH]6)C=CC4=C5)cc3C2=O)CC1 [NAN-190-2-NB590]	1.22	0.89	1.03	0.96	
CC(C)N(CC[C@H](c1ccccc1)c1cc(CCNC(=O)CCOCCOCCOCCOCCNC(=O)CCc2ccc3n2[B-](F)(F)[N+]2=C(c4ccc[nH]4)C=CC2=C3)ccc1O)C(C)C [Tolterodine-2-NB590]	0.85	1.04	1.04	1.01	
N#CN=C(NCCCOc1cccc(CN2CCCCC2)c1)NCCNC(=O)CCOCCOCCOCCOCCNC(=O)CCc1ccc2n1[B-](F)(F)[N+]1=C(c3ccc[nH]3)C=CC1=C2 [Aminopotentidine-2-NB590]	1.35	1.25	0.99	1.04	
CCOC(=O)c1cc(C#N)c(N2CCC(C(=O)NS(=O)(=O)Cc3ccccc3/C=C/C(=O)NCCNC(=O)CCc3ccc4n3[B-](F)(F)[N+]3=C(c5ccc[nH]5)C=CC3=C4)CC2)nc1C [AZD1283-1-NB590]					NanoBRET Fold Response (ADRA2C; ADRA2C, 0.1μM): 1.05; NanoBRET Fold Response (ADRA2C; ADRA2C, 1μM): 1.04; NanoBRET Fold Response (C3AR1; C3AR1, 0.1μM): 1.10; NanoBRET Fold Response (C3AR1; C3AR1, 1μM): 1.09
CN(C)CCC=C1c2ccccc2CCc2ccc(C(=O)NCCNC(=O)CCOCCOCCOCCOCCNC(=O)CCc3ccc4n3[B-](F)(F)[N+]3=C(c5ccc[nH]5)C=CC3=C4)cc21 [Amitriptyline-b-2-NB590]					NanoBRET Fold Response (ADRA2C; [1]): 1.08; NanoBRET Fold Response (ADRA2C; tracer at 1μM, listed as amitriptyline-b-2-NB590): 1.08; NanoBRET Fold Response (C3AR1; [1]): 1.19; NanoBRET Fold Response (C3AR1; tracer at 1μM): 1.00
CN(C)CCC=C1c2ccccc2CCc2ccc(C(=O)NCCNC(=O)CCOCCOCCOCCOCCNC(=O)CCc3ccc4n3[B-](F)(F)[N+]3=C(c5ccc[nH]5)C=CC3=C4)cc21 [Amitriptyline-a-2-NB590]					NanoBRET Fold Response (ADRA2C; tracer at 1μM): 1.37; NanoBRET Fold Response (C3AR1; tracer at 0.1μM): 0.99; NanoBRET Fold Response (C3AR1; tracer at 1μM): 1.01
O=C(CCc1ccc2n1[B-](F)(F)[N+]1=C(c3ccc[nH]3)C=CC1=C2)NCCOCCOCCNC(=O)OCCOCCN1CCN(C2=Nc3ccccc3Sc3ccccc32)CC1 [Quetiapine-a-2-NB590]		1.42	0.86	1.02	
Cc1cc2c(s1)Nc1ccccc1N=C2N1CCN(CCCNC(=O)CCOCCOCCOCCOCCNC(=O)CCc2ccc3n2[B-](F)(F)[N+]2=C(c4ccc[nH]4)C=CC2=C3)CC1 [Olanzapine-a-2-NB590]	0.97	1.50	1.01	1.01	
